According to patent US8835112B2, “Cell transdifferentiation into brown adipocytes” (Miami University, priority 2010, dated 2014):

Test system: HB-EGF and ADAM 12S co-expressing cells
Test: Inhibition of adipogenesis by KB-R7785 (Oil Red O staining, morphology)
Format: cell-based, mouse
Procedure: Cells were grown in the 60 mm culture dishes (Corning). After reaching a cell confluence of 50-70%, the cells were washed with 1.0 ml of PBS for three times, fixed with 1.0 ml of 10% formalin for 60 minutes at room temperature. Oil Red O stock stain solution was prepared by mixing 0.3 g oil red O in 100 ml of isopropanol overnight at room temperature and filtered by using Whatman #2 filter papers. The formalin was removed and the cells were washed with deionized water. The culture dishes were aspirated and added with 1.0 ml of 60% isopropanol working solution to incubate 5 minutes at room temperature. Oil Red O working solution was prepared by diluting 30 ml of the stock stain with 20 ml of distilled water, filtered with Whatman #1 filter papers into a Coplin jar, and covered with a lid immediately. The 60% working isopropanol was removed and the culture dishes were filled with 1.0 ml working solution of Oil Red O, incubated for 5 minutes at room temperature. The cells were rinsed with deionized water until fluid becomes clear, and counterstained with 1 ml of hematoxylin for 1 minute at room temperature. The hematoxylin was then removed from the wells, and the cells were rinsed with deionized water and imaged under a microscope (Olympus). […]

SMILES: CNC(=O)[C@@H](NC(=O)[C@H](CC(C)C)[C@H](C)C(=O)NO)c1ccccc1 [KB-R7785, [4-(N-hydroxyamino)-2R-isobutyl-3S-methylsuccinyl]-L-phenylglycine-N-methylamide]
- Reversal of brown adipocytes / adipocyte morphology (KB-R7785 10 μM, over 4 weeks, mouse fibroblasts stably transfected with ADAM 12S and HB-EGF): returned the brown adipocytes to mouse fibroblasts
- Oil Red O staining after incubation with inhibitor (KB-R7785 20 μM in culture media, 3 weeks incubation, cells positive for Oil Red O before): lack Oil Red O staining
